Active and inactive are the calls of the source.
Experiments:
[1] = biological target: T1, Interleukin-8 (Homo sapiens, UniProt P10145); experiment: Dose Response confirmation of uHTS small molecule hits for cystic fibrosis induced NFkb Inhibitors in a TNFa-induced IL8 counterscreen.; format: functional; settings: read-out: IC50_Mean
T1 sequence (P10145 whole entry): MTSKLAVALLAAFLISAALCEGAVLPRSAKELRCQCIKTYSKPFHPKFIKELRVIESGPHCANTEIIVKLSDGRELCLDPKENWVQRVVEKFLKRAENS

[2] = biological target: T2, Rac GTPase-activating protein 1 (Homo sapiens, UniProt Q9H0H5); experiment: blockers of MgcRacGAP-driven Rac1 GTP hydrolysis – biochemical, ADP Hunter fluorescence, primary and confirmatory, confirmation (AID 624330); format: functional
T2 sequence (Q9H0H5 whole entry): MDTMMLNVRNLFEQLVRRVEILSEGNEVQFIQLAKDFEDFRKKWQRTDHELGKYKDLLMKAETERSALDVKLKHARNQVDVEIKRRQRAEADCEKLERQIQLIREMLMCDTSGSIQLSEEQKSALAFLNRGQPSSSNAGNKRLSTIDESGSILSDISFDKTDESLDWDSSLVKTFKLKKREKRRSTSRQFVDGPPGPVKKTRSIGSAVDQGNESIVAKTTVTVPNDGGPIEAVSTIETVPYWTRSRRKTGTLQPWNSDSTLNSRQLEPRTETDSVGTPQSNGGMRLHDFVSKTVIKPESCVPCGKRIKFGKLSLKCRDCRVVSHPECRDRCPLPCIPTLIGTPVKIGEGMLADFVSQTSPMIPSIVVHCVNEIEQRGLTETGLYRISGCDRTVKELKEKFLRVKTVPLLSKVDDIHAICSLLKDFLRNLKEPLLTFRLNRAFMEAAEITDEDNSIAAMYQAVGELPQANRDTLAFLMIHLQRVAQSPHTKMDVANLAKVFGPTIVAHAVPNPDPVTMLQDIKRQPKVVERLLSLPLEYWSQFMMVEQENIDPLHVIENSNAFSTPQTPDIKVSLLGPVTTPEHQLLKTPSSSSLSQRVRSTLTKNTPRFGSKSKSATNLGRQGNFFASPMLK

[3] = biological target: T1, Interleukin-8; experiment: Dose Response confirmation of uHTS small molecule hits for cystic fibrosis induced NFkb Inhibitors in a PAF-induced IL8 counterscreen.; format: functional; settings: read-out: IC50_Mean
[4] = biological target: T3, Low molecular weight phosphotyrosine protein phosphatase (Homo sapiens, UniProt P24666); format: functional; settings: read-out: IC50_Mean;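 note: Dose-response confirmation assay measuring inhibition of LMPTP enzyme activity by fluorescence intensity read-out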
T3 sequence (P24666 whole entry): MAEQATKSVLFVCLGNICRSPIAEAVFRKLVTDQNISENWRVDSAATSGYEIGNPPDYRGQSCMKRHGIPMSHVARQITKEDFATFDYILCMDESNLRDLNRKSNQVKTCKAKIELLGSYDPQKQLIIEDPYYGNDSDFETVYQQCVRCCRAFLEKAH

[5] = biological target: T4, Tyrosine-protein phosphatase non-receptor type 22 (Homo sapiens, UniProt Q9Y2R2); experiment: PTPN22 enzyme inhibitors – biochemical, fluorescence, LYP catalytic domain, selectivity assay for LMPTP inhibitor project, dose response (AID 652006); format: functional; settings: read-out: IC50_Mean
T4 sequence (Q9Y2R2 whole entry): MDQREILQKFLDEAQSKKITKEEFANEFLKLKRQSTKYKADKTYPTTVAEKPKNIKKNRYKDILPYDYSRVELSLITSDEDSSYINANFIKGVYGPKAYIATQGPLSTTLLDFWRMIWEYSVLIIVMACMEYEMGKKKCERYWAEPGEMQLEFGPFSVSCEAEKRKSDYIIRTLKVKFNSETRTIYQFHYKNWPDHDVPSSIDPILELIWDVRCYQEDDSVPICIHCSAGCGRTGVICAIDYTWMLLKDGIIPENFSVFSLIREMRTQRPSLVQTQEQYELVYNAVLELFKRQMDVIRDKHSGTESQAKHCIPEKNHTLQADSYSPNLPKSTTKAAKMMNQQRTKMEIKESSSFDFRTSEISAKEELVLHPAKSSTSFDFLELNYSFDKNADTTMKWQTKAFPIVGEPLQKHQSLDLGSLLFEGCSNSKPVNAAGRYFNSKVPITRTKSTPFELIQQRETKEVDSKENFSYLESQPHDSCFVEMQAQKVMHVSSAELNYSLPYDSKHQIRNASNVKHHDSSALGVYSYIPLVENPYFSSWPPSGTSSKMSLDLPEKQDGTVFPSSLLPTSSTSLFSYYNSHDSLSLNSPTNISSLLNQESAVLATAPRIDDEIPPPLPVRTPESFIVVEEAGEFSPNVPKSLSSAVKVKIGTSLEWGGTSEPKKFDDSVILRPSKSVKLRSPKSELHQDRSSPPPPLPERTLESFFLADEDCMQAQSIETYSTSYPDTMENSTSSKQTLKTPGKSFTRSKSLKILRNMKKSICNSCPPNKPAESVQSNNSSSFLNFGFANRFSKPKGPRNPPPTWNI

[6] = biological target: Testis-specific serine/threonine-protein kinase 2 (Homo sapiens, UniProt Q96PF2); format: functional;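 note: part of the Navigating the Kinome panel, target entry STK22B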
[7] = biological target: Cell division cycle 7-related protein kinase (Homo sapiens, UniProt O00311); format: functional;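 note: value obtained from a kinome-wide kinase panel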
[8] = biological target: Mitogen-activated protein kinase 12 (Homo sapiens, UniProt P53778); format: functional;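 note: measured as one member of a kinome-wide kinase profiling panel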
[9] = biological target: Nuclear receptor subfamily 5 group A member 2 (Homo sapiens, UniProt O00482); format: functional, cell-based;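 note: HEK293T cells transfected with LRH-1 and a StAR promoter luciferase reporter; potency for inhibitors that lower LRH-1 driven reporter light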
[10] = biological target: Steroidogenic factor 1 (Homo sapiens, UniProt Q13285); experiment: Counterscreen for inverse agonists of the liver receptor homolog-1 (LRH-1; NR5A2): Luminescence-based cell-based high throughput dose response assay to identify inverse agonists of the Steroidogenic Factor 1 Nuclear Receptor (SF1; NR5A1).; format: functional
[11] = nonselective StAR promoter luciferase inhibitors – cell-based, luminescence, luciferase reporter, counter-screen for LRH-1 inverse agonist project, dose response (AID 651969); format: functional
[12] = cells; format: functional, cell-based
[13] = cells; format: functional, cell-based; remark: listed apart in the source
[14] = test system: INS1; experiment: INS-1E survival protection against cytokine death – cell-based, luminescence, retest, dose response (AID 449756); format: functional; settings: Rattus norvegicus;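 note: cell death triggered by IL-1 beta plus TNF-alpha plus IFN-gamma mixture; protective hits raise ATP signal compared with cytokine alone wells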
[15] = biological target: DNA (cytosine-5)-methyltransferase 1 (Homo sapiens, UniProt P26358); experiment: inhibition of DNA methylation by DNMT1 – biochemical, fluorescent molecular beacon, confirmation (AID 602386); format: functional
[16] = biological target: SWI/SNF-related matrix-associated actin-dependent regulator of chromatin subfamily A member 2 (Homo sapiens, UniProt P51531); experiment: Luminescence-based cell-based high throughput dose response assay to identify activators of the function of SWI/SNF related, matrix associated, actin dependent regulator of chromatin, subfamily a, member 2 (SMARCA2, BRM).; format: functional
[17] = Counterscreen for activators of the function of SWI/SNF related, matrix associated, actin dependent regulator of chromatin, subfamily a, member 2 (SMARCA2, BRM): Luminescence-based cell-based high throughput dose response assay to identify non-selective compounds using the VP16 reporter assay.; format: functional
[18] = biological target: Mitochondrial peptide methionine sulfoxide reductase (Bos taurus, UniProt P54149); format: functional;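 note: absorbance read-out, biochemical high-throughput dose-response screen for MsrA inhibitors, confirmatory; recombinant bovine MsrA coupled to E. coli TrxB with NADPH and selenocystamine; potency is for inhibitors of MsrA activity on DMSO substrate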
[19] = THP-1 cell cytotoxicity, dose response, cytotoxicity control for non-replicating M. tuberculosis project (AID 489025); format: functional
[20] = Vero E6 cell cytotoxicity, dose response, cytotoxicity control for non-replicating M. tuberculosis project, secondary assay (AID 492998); format: functional, VeroE6; settings: Vero C1008
[21] = cells; format: functional
[22] = bead-based luminescence quenchers, dual-tagged ARNT – biochemical, AlphaScreen, cherry-pick, artefact control for ARNT-TACC3 interaction inhibitor project, dose response (AID 651705); format: functional;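 note: AlphaScreen bead proximity signal that flags compounds interfering with the detection technology; potency reflects signal decrease which marks the compound as an assay artifact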
[23] = biological target: T5, Heat shock factor protein 1 (Mus musculus, UniProt P38532); experiment: enhancement of HSF1-driven luciferase signal – cell-based, NIH3T3, luminescence, dose retest, confirmation (AID 435004); format: functional;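 note: stress induced by proteasome inhibitor MG132 added 30 min after compound; luciferase reporter driven by HSF1 response element in NIH3T3 cells; actives raise luminescence as potentiators of the MG132 stress response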
T5 sequence (P38532 whole entry): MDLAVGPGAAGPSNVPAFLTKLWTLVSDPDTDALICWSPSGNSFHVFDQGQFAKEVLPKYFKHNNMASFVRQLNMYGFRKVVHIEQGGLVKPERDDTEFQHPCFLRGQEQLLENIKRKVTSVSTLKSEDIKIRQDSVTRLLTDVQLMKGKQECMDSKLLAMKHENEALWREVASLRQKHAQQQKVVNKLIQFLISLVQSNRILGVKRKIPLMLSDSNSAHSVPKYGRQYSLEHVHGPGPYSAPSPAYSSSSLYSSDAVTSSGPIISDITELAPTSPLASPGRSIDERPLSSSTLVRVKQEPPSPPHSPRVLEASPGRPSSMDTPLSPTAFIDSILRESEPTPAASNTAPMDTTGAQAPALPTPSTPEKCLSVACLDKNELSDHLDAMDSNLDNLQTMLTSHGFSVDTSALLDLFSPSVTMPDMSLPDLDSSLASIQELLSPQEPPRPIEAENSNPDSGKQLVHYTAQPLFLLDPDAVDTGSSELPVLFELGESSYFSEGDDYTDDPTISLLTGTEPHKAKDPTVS

[24] = biological target: Melanocortin receptor 4 (Homo sapiens, UniProt P32245); experiment: inhibitors of MC4R cAMP signaling – cell-based, TR-FRET, biased antagonists, dose response (AID 602298); format: functional;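 note: antagonist potency against agonist-stimulated cAMP production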
[25] = cAMP pathway inhibition in counterscreen cell line – TR-FRET cAMP detection, counter-screen for MC4R biased antagonist project, dose response (AID 602305); format: functional, cell-based;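 note: U2OS cells stimulated with forskolin near its EC80 as the cAMP inducer; potency is for inhibition of forskolin-stimulated cAMP signaling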
[26] = biological target: Beta-galactosidase (Escherichia coli, UniProt Q8VNN2); experiment: Dose response counterscreen for EBI2 assay utilizing the enzyme, b-galactosidase.; format: functional
[27] = biological target: T6, Aryl hydrocarbon receptor (Homo sapiens, UniProt P35869); settings: Potency;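 note: confirmatory quantitative high-throughput screen measuring activation of the AhR signaling pathway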
T6 sequence (P35869 whole entry): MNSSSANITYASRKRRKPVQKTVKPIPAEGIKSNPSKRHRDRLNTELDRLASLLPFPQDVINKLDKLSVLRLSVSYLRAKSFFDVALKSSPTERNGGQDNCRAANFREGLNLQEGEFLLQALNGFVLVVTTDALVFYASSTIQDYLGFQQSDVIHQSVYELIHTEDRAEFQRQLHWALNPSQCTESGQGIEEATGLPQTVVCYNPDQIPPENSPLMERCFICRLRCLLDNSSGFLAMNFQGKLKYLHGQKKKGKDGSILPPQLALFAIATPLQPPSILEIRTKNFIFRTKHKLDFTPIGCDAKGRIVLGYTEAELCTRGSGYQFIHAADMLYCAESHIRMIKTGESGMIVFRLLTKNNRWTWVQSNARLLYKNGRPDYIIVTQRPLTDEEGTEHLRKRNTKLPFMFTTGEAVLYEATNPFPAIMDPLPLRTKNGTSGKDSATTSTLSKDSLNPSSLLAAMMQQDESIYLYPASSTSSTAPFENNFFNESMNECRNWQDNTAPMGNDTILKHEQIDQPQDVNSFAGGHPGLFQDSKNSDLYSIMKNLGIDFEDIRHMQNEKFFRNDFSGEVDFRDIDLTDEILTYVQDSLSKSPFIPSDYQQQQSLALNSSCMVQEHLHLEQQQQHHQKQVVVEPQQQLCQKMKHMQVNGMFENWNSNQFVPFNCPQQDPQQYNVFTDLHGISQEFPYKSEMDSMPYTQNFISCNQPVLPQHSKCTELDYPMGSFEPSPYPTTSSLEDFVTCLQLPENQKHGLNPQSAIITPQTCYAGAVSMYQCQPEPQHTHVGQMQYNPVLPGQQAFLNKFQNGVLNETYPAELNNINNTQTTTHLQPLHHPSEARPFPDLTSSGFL

[28] = biological target: Tyrosine-protein phosphatase non-receptor type 11 (Homo sapiens, UniProt Q06124); experiment: PTPN11 enzyme inhibitors – biochemical, selectivity assay for STEP inhibitor project, dose response (AID 602367); format: functional; settings: read-out: IC50_Mean
[29] = biological target: Tyrosine-protein phosphatase non-receptor type 5 (Homo sapiens, UniProt P54829); experiment: PTPN5 enzyme inhibition – biochemical, fluorescence intensity, uHTS hits, confirmation (AID 602372); format: functional; settings: read-out: IC50_Mean
[30] = biological target: Dual specificity protein phosphatase 3 (Homo sapiens, UniProt P51452); experiment: VHR phosphatase inhibition, dose response, selectivity assay for STEP inhibitor project, biochemical (AID 602374); format: functional; settings: read-out: IC50_Mean
[31] = biological target: Potassium voltage-gated channel subfamily KQT member 2 (Rattus norvegicus, UniProt O88943); experiment: blockers of KCNQ2 channel current – cell-based, automated electrophysiology, set II, rat KCNQ2, dose response (AID 588637); format: functional
Sequence of Potassium voltage-gated channel subfamily KQT member 2 (O88943 whole entry): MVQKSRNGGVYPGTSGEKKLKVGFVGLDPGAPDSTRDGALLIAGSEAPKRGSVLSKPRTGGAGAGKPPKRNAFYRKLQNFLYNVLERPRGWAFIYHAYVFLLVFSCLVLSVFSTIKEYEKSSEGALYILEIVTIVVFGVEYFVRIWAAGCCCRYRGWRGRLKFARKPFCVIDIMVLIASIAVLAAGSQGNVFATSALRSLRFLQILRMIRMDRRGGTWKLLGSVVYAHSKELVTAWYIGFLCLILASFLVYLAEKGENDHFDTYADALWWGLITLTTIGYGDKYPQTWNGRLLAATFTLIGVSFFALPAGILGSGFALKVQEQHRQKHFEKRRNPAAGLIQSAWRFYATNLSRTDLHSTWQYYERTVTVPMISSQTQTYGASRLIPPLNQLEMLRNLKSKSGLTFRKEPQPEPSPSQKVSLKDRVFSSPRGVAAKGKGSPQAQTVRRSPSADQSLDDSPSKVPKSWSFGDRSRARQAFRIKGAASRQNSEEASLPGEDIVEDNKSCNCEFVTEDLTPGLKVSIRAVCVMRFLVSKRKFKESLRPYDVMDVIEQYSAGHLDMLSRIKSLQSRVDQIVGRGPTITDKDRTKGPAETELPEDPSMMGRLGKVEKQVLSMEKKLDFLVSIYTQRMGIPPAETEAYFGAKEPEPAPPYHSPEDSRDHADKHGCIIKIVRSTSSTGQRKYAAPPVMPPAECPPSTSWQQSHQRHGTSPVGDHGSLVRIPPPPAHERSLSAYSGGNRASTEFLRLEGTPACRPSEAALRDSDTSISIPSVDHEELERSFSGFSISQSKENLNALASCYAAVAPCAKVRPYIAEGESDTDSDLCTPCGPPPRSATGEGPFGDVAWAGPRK

Sequence of Dual specificity protein phosphatase 3 (P51452 whole entry): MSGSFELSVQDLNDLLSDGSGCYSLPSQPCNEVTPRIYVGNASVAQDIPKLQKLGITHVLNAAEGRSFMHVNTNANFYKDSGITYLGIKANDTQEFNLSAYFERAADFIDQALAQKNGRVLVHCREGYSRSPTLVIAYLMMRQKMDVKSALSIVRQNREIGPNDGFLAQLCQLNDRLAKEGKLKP
Sequence of Tyrosine-protein phosphatase non-receptor type 5 (P54829 whole entry): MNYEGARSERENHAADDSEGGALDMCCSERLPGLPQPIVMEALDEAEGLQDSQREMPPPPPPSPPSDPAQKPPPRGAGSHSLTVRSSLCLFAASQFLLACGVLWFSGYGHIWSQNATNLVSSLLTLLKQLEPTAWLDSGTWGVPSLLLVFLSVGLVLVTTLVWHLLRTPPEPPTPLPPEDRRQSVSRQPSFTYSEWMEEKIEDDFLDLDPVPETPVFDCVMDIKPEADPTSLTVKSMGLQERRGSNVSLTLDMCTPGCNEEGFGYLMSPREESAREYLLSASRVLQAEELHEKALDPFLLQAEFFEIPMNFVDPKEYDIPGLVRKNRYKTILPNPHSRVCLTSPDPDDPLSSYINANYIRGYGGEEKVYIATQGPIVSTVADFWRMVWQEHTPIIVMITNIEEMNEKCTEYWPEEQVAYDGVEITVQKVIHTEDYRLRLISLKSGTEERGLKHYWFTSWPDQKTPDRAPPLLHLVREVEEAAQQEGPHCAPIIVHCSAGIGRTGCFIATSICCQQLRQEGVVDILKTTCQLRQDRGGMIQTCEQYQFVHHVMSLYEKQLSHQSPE
Sequence of Beta-galactosidase (Q8VNN2 whole entry): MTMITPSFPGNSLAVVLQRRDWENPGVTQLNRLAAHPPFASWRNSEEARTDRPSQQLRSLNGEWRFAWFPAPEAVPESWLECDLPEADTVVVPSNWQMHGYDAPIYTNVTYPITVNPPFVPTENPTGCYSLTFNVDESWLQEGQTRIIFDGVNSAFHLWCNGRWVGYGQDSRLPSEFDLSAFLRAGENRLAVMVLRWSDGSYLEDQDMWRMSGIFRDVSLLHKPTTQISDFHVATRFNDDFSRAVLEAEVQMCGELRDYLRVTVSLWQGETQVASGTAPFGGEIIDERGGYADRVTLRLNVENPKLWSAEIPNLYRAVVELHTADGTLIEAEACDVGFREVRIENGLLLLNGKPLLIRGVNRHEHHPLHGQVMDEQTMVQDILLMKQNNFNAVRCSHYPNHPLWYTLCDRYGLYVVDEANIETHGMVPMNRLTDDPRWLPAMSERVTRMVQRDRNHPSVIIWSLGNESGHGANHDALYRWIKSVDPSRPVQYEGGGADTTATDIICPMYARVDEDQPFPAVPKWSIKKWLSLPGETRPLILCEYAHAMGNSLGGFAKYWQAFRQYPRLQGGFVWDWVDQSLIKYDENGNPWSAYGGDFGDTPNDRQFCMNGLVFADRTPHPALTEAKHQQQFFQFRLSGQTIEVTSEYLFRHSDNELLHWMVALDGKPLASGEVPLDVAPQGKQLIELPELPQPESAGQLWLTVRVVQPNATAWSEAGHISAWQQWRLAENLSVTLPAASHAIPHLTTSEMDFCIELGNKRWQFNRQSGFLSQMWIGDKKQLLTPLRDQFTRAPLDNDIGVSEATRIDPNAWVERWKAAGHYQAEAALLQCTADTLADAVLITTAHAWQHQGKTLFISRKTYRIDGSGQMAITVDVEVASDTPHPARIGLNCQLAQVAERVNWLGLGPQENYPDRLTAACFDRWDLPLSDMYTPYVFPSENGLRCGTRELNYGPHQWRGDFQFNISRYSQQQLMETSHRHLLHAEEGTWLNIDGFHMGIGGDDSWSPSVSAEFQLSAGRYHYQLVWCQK
Sequence of Tyrosine-protein phosphatase non-receptor type 11 (Q06124 whole entry): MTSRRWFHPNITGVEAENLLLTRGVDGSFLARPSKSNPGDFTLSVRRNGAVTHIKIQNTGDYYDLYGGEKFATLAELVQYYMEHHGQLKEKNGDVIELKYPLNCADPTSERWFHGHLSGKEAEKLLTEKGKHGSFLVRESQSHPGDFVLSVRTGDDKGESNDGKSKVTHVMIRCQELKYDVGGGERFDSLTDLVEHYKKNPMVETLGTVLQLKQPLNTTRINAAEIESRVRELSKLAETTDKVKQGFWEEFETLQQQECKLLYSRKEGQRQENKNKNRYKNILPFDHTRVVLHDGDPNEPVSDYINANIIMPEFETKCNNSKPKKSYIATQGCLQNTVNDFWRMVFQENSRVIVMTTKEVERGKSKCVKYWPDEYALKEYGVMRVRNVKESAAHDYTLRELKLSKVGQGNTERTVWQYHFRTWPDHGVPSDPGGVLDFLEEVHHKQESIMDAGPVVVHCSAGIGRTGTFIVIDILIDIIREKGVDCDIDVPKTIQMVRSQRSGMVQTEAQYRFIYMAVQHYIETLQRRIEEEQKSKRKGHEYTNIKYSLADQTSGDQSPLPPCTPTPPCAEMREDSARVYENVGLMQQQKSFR
Sequence of Nuclear receptor subfamily 5 group A member 2 (O00482 whole entry): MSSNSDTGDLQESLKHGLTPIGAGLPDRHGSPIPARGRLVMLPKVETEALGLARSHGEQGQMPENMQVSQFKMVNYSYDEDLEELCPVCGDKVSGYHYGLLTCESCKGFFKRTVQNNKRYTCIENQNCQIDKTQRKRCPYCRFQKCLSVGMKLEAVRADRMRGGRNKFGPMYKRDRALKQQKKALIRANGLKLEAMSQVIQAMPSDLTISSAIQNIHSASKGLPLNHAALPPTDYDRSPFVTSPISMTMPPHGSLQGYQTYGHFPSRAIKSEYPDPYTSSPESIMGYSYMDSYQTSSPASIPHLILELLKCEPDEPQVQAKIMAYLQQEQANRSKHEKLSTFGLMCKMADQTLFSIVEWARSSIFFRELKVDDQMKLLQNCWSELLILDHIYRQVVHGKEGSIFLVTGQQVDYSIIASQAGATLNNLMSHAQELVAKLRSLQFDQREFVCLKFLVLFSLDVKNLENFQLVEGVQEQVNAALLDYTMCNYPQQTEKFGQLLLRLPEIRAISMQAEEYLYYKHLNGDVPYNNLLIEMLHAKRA
Sequence of Cell division cycle 7-related protein kinase (O00311 whole entry): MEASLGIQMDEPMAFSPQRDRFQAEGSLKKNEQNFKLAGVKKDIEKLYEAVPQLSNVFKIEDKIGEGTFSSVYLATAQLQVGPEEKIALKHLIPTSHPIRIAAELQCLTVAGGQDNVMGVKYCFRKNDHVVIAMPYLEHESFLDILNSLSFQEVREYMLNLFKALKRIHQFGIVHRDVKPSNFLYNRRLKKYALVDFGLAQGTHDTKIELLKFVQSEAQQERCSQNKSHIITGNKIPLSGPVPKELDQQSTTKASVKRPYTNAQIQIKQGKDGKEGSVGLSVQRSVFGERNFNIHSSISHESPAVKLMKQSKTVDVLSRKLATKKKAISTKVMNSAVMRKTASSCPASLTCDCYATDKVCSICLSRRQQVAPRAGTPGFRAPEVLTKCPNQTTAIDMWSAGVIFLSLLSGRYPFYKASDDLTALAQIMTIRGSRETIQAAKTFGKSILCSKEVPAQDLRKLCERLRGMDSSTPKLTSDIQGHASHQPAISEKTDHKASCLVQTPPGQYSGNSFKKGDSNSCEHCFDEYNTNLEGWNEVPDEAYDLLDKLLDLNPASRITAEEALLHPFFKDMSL
Sequence of Steroidogenic factor 1 (Q13285 whole entry): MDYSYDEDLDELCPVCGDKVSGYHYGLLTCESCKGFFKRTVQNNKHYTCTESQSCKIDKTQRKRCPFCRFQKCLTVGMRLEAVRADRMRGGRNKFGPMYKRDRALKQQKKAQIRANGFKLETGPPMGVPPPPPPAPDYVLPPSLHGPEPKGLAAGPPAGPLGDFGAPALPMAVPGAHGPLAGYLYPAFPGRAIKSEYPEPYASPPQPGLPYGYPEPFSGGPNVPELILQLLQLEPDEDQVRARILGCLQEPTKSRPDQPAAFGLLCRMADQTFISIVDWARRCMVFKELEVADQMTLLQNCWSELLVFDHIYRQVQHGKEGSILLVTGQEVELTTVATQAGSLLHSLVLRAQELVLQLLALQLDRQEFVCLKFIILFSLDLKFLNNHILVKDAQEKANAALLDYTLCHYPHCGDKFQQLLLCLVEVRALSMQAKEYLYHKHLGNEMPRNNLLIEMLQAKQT

COc1ccc(-c2c[nH]nc2-c2ccc(O)cc2O)cc1
IC50 [1]: 2.62 µM (active) | IC50 [2]: 43.9 µM (active) | IC50 [3]: 6.94 µM (active)

CC1C(=O)N(Cc2cn(Cc3ccco3)nn2)CCS(=O)(=O)N1Cc1ccc(-c2cccnc2)cc1 (stereo unspecified)
IC50 [4]: 15.2 µM (active) | IC50 [5]: 26.6 µM (inactive)

C[S+]([O-])c1ccc(-c2nc(-c3ccncc3)c(-c3ccc(F)cc3)[nH]2)cc1 (stereo unspecified) [SB-203580]
Ki [6]: > 1.58 µM (inactive) | Ki [7]: > 1.26 µM (inactive) | Ki [8]: > 6.31 µM (inactive)

CC(=O)c1ccc(OC(C)C(=O)OCC(=O)NCCc2ccccc2)cc1 (stereo unspecified)
IC50 [9]: 9.39 µM (active) | IC50 [10]: 8.19 µM (active) | IC50 [11]: 35.9 µM (inactive)

CCN(CC)CCOc1ccc2c(c1)C(=NO)c1cc(OCCN(CC)CC)ccc1-2
EC50 [12]: > 350 µM (not active) | EC50 [13]: > 350 µM (not active) | AC50 [14]: 5.22 µM (active) | IC50 [15]: > 99 µM (inactive) | EC50 [16]: 11.4 µM (inactive) | EC50 [17]: > 91.1 µM (inactive)

O=C(NCCc1ccccc1)c1ccc(=O)oc1
IC50 [18]: 144 µM (inactive)

c1ccc(-c2nc3ccccn3c2NC2CCCC2)nc1
CC50 [19]: 28.8 µM (active) | CC50 [20]: > 20 µM (active) | IC50 [21]: 4.27 µM (active) | AC50 [22]: 87.6 µM (active)

CCOC(=O)c1ccc(/N=c2\sc(C(=O)OC)cc(=O)n2-c2ccc(C(=O)OCC)cc2)cc1
EC50 [23]: 3.42 µM (active) | IC50 [24]: > 64.6 µM (inactive) | IC50 [25]: > 64.6 µM (inactive) | IC50 [26]: > 80 µM (inactive)

Cc1ccccc1C(=O)Nc1cccc(OC(C)C)c1 [MEPRONIL]
AC50 [27]: 28.2 µM (inconclusive)

CCOC(=O)N1CCC(N(CCN(C)C)C(=S)Nc2ccc(Oc3ccccc3)cc2)CC1
IC50 [28]: 3.17 µM (active) | IC50 [29]: 6.93 µM (active) | IC50 [30]: 0.5 µM (active)

Cc1ccc2nc(-c3ccccc3)cc(C(=O)N3CC(C)OC(C)C3)c2c1 (stereo unspecified)
IC50 [31]: 0.0681 µM (active)

Source: ChEMBL document CHEMBL1201862, “PubChem BioAssay data set” (2004)
